For 27 compounds, IC10 results are on record in ChEMBL document CHEMBL1147167, “New 1,3-dioxolane and 1,3-dioxane derivatives as effective modulators to overcome multidrug resistance” (2007).

The first assay has as its system Caco-2. The assay can be described thus: Antiproliferative activity against human Caco-2 cells assessed as cell viability by MTT assay after 48 hrs. The class given is functional.
Conditions: not given
(In general: Tetrazolium assays rely on reduction of a dye to a coloured formazan, in cell work by metabolically active cells.)
As for `c1ccc(C(CCCCN2CCN(CCCOc3ccc(C4O[C@@H](c5ccccc5)[C@H](c5ccccc5)O4)cc3)CC2)c2ccccc2)cc1` (relative stereo), the IC10 was determined as 15.9 µM.

As for `CN1CCN(CCCOc2ccc(C3O[C@H](c4ccccc4)[C@@H](c4ccccc4)O3)cc2)CC1` (relative stereo), the IC10 was determined as 19.5 µM.

The assay is the same for the next values; noted with them: Homo sapiens, Caco-2, 48 h; read-out: IC10.
As for `c1ccc(C(CCCCN2CCN(CCCOc3ccc(C4O[C@@H](c5ccccc5)[C@H](c5ccccc5)O4)cc3)CC2)c2ccccc2)cc1`, the IC10 is 17.1 µM.

Turning to `CN1CCN(CCCOc2ccc(C3OC(c4ccccc4Cl)C(c4ccccc4Cl)O3)cc2)CC1` (configuration not stated), the IC10 is 19.5 µM.

Regarding `c1ccc(C(CCCCN2CCN(CCCCOc3ccc(C4OC(c5ccccc5)C(c5ccccc5)O4)cc3)CC2)c2ccccc2)cc1` (configuration not stated), the IC10 came out at 17.5 µM.

In the case of `c1ccc(C(CCN2CCN(CCCOc3ccc(C4OC(c5ccccc5)C(c5ccccc5)O4)cc3)CC2)c2ccccc2)cc1` (configuration not stated), the IC10 amounted to 18.5 µM.

`c1ccc(C2OC(c3ccc(OCCCN4CCCCC4)cc3)OC2c2ccccc2)cc1` (configuration not stated): the IC10 is 15.3 µM.

On to `CN1CCN(CCCCOc2ccc(C3OC(c4ccccc4)C(c4ccccc4)O3)cc2)CC1` (configuration not stated), for which the IC10 worked out at 13.8 µM.

Regarding `OCCN1CCN(CCCOc2ccc(C3OC(c4ccccc4)C(c4ccccc4)O3)cc2)CC1` (configuration not stated), the IC10 came out at 76.6 µM.

Regarding `CN1CCN(CCCOc2ccc(C3O[C@H](c4ccccc4)[C@H](c4ccccc4)O3)cc2)CC1` (some centres not stated), the IC10 amounted to 21.1 µM.

Take `CC1OC(c2ccccc2)(c2ccccc2)OCC1CN1CCN(CCCCC(c2ccccc2)c2ccccc2)CC1` (configuration not stated): the IC10 is 6.1 µM.

Turning to `CC1OC(c2ccccc2)(c2ccccc2)OCC1CN1CCN(C)CC1` (configuration not stated), the IC10 was 9.7 µM.

With `c1ccc(C(CCCCN2CCN(CCOc3ccc(C4OC(c5ccccc5)C(c5ccccc5)O4)cc3)CC2)c2ccccc2)cc1` (configuration not stated), the IC10 amounted to 14.7 µM.

As for `c1ccc(C(CCCN2CCN(CCCOc3ccc(C4OC(c5ccccc5)C(c5ccccc5)O4)cc3)CC2)c2ccccc2)cc1` (configuration not stated), the IC10 came to 12.4 µM.

Turning to `c1ccc(C(CCCCN2CCN(CCCOc3ccc(C4O[C@H](c5ccccc5)[C@H](c5ccccc5)O4)cc3)CC2)c2ccccc2)cc1` (some centres not stated), the IC10 was 16.8 µM.

For `c1ccc(C2(c3ccccc3)OCC(CCCCN3CCCCC3)O2)cc1` (configuration not stated), the 10% effect concentration (IC10) came to 18.1 µM.

Consider `CN1CCN(CCCOc2ccc(C3O[C@H](c4ccccc4)[C@@H](c4ccccc4)O3)cc2)CC1`, for which the IC10 turned out to be 20.4 µM.

In the case of `CN1CCN(CCCOc2ccc(C3OC(c4ccc(F)cc4)C(c4ccc(F)cc4)O3)cc2)CC1` (configuration not stated), the IC10 came out at 18.8 µM.

In the case of `c1ccc(C2OC(c3ccc(OCCCN4CCN(C(c5ccccc5)c5ccccc5)CC4)cc3)OC2c2ccccc2)cc1` (configuration not stated), the IC10 amounted to 16.4 µM.

As for `c1ccc(C(CCCCN2CCN(CCCCC3COC(c4ccccc4)(c4ccccc4)O3)CC2)c2ccccc2)cc1` (configuration not stated), the IC10 worked out at 5.85 µM.

Take `c1ccc(C(CCCCN2CCN(CCCOc3ccc(C4O[C@H](c5ccccc5)[C@@H](c5ccccc5)O4)cc3)CC2)c2ccccc2)cc1`: the IC10 came to 16.2 µM.

As for `c1ccc(C(CN2CCN(CCCOc3ccc(C4OC(c5ccccc5)C(c5ccccc5)O4)cc3)CC2)c2ccccc2)cc1` (configuration not stated), the IC10 turned out to be 6.1 µM.

For the compound `OCCN1CCN(CCCCC2COC(c3ccccc3)(c3ccccc3)O2)CC1` (configuration not stated), the IC10 turned out to be 98.3 µM.

For `CN1CCN(CCCCC2COC(c3ccccc3)(c3ccccc3)O2)CC1` (configuration not stated), the IC10 was 10.5 µM.

For `CN1CCN(CCOc2ccc(C3OC(c4ccccc4)C(c4ccccc4)O3)cc2)CC1` (configuration not stated), the IC10 was found to be 8.6 µM.

As to `CN1CCN(CCCOc2ccc(C3O[C@@H](c4ccccc4)[C@H](c4ccccc4)O3)cc2)CC1`, the IC10 was 19.9 µM.

For the compound `CN1CCN(CCCN2c3ccccc3Sc3ccc(C(F)(F)F)cc32)CC1` [TRIFLUOPERAZINE], the concentration for an effect of 10% (IC10) amounted to 11.3 µM.

As a reminder, the IC10 is the concentration needed for an effect of 10%.
